Laboratory results published in patent publication US20180273531A1, “PYRIMIDINE COMPOUND AND MEDICAL USE THEREOF” (Japan Tobacco Inc., priority 2004, published 2018).

Key:
Assay type in all cases: cell-based
[1] = tested on: Renal cancer cell line ACHN cell; assay: Growth inhibitory effect against cancer cell lines (3H-thymidine uptake), ACHN; details: Homo sapiens, ACHN
Procedure: (§1) Renal cancer cell line ACHN cell or colorectal cancer cell line HT-29 cells were cultured in a 96 well plate at 1.0×10^4 cells/90 μL/well for 24 hrs, then a test substance dissolved in DMSO (dimethyl sulfoxide) was added. After 18 hrs, ^3H-thymidine (0.25 μCi/well) was added and the cells were cultured for 6 hrs. Using a cell harvester, the cells were recovered on a UniFilter-96 GF/B glass filter and the ^3H radioactivity uptaken by the cells was measured by TopCount (Packard). As a control, DMSO was used and the activity of the test substance was expressed in the concentration (IC50) necessary for inhibiting ^3H radioactivity uptaken by the cell to 50% of that of the control group. The measurements were made in triplicate.

p15 protein = assay: Evaluation of p15 induction activity (Western blotting); details: test substance 0.1 μM, 24 hrs, ACHN cells or HT-29 cells, compared to DMSO, n=2
Procedure: ACHN cells or HT-29 cells were cultured in a 6 well plate at 2.5×10^5 cells/1.8 mL/well for 24 hrs, then a test substance (0.1 μM) dissolved in DMSO was added. After 24 hrs, cells were detached using trypsin-EDTA (ethylene diamine tetraacetic acid) and solubilized with NuPAGE LDS sample buffer (Invitrogen). Using an RC DC protein assay kit (BIO-RAD), the protein concentration of the sample was quantitated, and a sample in an amount corresponding to 10 μg of BSA (bovine serum albumin) was analyzed by Western blotting using an anti-p15 antibody. The density of the band stained with the anti-p15 antibody was measured by a densitometer to quantify the amount of p15 protein. As a control, DMSO was used and the test was performed with n=2 and the average protein amount was determined.

[2] = tested on: colorectal cancer cell line HT-29 cells; assay: Growth inhibitory effect against cancer cell lines (3H-thymidine uptake), HT-29; details: Homo sapiens, HT-29, inhibition of 3H-thymidine uptake; test substance 18 hrs, then 3H-thymidine 6 hrs; triplicate
Procedure: as §1

SMILES	IC50 [1]	IC50 [2]	fold induction at 0.1 µM (p15 protein)
Cc1ccccc1-n1c(=O)n(C2CC2)c(=O)c2c(Nc3ccc(N(C)C)cc3)cc(=O)n(C)c21 [Example 1-106]	100 to 1000 nM	100 to 1000 nM	≥ 1.5
Cn1c(=O)cc(Nc2ccc(Br)cc2)c2c(=O)n(C3CC3)c(=O)n(-c3ccccc3F)c21 [Example 1-113]	100 to 1000 nM	100 to 1000 nM	≥ 1.5
Cc1ccc(Nc2cc(=O)n(C)c3c2c(=O)n(C2CC2)c(=O)n3-c2ccccc2)c(F)c1 [Example 1-168]	–	10 to 100 nM	≥ 1.5
Cn1c(=O)cc(Nc2ccc(Br)cc2Cl)c2c(=O)n(C3CC3)c(=O)n(-c3ccccc3)c21 [Example 1-176]	100 to 1000 nM	10 to 100 nM	≥ 1.5
COc1ccc(-n2c(=O)n(C3CC3)c(=O)c3c(Nc4ccc(Br)cc4)cc(=O)n(C)c32)cc1 [Example 1-183]	–	100 to 1000 nM	≥ 1.5
Cn1c(=O)cc(Nc2ccc(Br)cc2F)c2c(=O)n(C3CC3)c(=O)n(-c3ccc(O)cc3)c21 [Example 1-188]	100 to 1000 nM	10 to 100 nM	≥ 1.5
COc1cccc(-n2c(=O)n(C3CC3)c(=O)c3c(Nc4ccc(Br)cc4F)cc(=O)n(C)c32)c1 [Example 1-191]	100 to 1000 nM	10 to 100 nM	≥ 1.5
CN(C)c1ccc(Nc2cc(=O)n(C)c3c2c(=O)n(C2CC2)c(=O)n3-c2ccccc2)c(F)c1 [Example 1-192]	100 to 1000 nM	10 to 100 nM	≥ 1.5
Cn1c(=O)cc(Nc2ccc(Br)cc2F)c2c(=O)n(C3CC3)c(=O)n(-c3cccc(N4CCOCC4)c3)c21 [Example 1-193]	100 to 1000 nM	< 10 nM	≥ 1.5
CN(C)c1cccc(-n2c(=O)n(C3CC3)c(=O)c3c(Nc4ccc(Br)cc4F)cc(=O)n(C)c32)c1 [Example 1-199]	100 to 1000 nM	10 to 100 nM	≥ 1.5
Cn1c(=O)c2c(Nc3ccc(Br)cc3Cl)cc(=O)n(C)c2n(-c2ccccc2)c1=O [Example 1-200]	100 to 1000 nM	10 to 100 nM	≥ 1.5
CN(C)c1ccc(Nc2cc(=O)n(C)c3c2c(=O)n(C2CC2)c(=O)n3-c2cccc(N3CCOCC3)c2)c(F)c1 [Example 1-205]	100 to 1000 nM	< 10 nM	≥ 1.5
Cn1c(=O)cc(Nc2ccc(I)cc2F)c2c(=O)n(C3CC3)c(=O)n(-c3ccccc3)c21 [Example 1-207]	10 to 100 nM	< 10 nM	≥ 1.5
C#Cc1ccc(Nc2cc(=O)n(C)c3c2c(=O)n(C2CC2)c(=O)n3-c2ccccc2)c(F)c1 [Example 1-208]	10 to 100 nM	< 10 nM	≥ 1.5
Cn1c(=O)cc(Nc2ccc(Br)cc2F)c2c(=O)n(C3CC3)c(=O)n(-c3cccc(N4CCCC4=O)c3)c21 [Example 1-212]	100 to 1000 nM	< 10 nM	≥ 1.5
Cn1c(=O)cc(Nc2ccc(Br)cc2F)c2c(=O)n(C3CC3)c(=O)n(-c3cccc(OCCN4CCOCC4)c3)c21 [Example 1-232]	100 to 1000 nM	10 to 100 nM	–
Cn1c(=O)cc(Nc2ccc(Br)cc2F)c2c(=O)n(C3CC3)c(=O)n(-c3cccc(NS(=O)(=O)CC(F)(F)F)c3)c21 [Example 1-267]	100 to 1000 nM	10 to 100 nM	–
Cn1c(=O)cc(Nc2ccc(Br)cc2F)c2c(=O)n(C3CC3)c(=O)n(-c3cccc(C(N)=O)c3)c21 [Example 1-270]	100 to 1000 nM	10 to 100 nM	–
CCCCC(=O)NCC(=O)Nc1cccc(-n2c(=O)n(C3CC3)c(=O)c3c(Nc4ccc(Br)cc4F)cc(=O)n(C)c32)c1 [Example 1-276]	100 to 1000 nM	10 to 100 nM	–
CCC(=O)Nc1cccc(-n2c(=O)n(C3CC3)c(=O)c3c(Nc4ccc(Br)cc4F)cc(=O)n(C)c32)c1 [Example 1-278]	100 to 1000 nM	10 to 100 nM	–
CNS(=O)(=O)c1cccc(-n2c(=O)n(C3CC3)c(=O)c3c(Nc4ccc(Br)cc4F)cc(=O)n(C)c32)c1 [Example 1-294]	10 to 100 nM	–	–
Cn1c(=O)cc(Nc2ccc(Br)cc2)c2c(=O)n(C3CC3)c(=O)n(-c3cccc(NS(C)(=O)=O)c3)c21 [Example 1-304]	100 to 1000 nM	10 to 100 nM	–
CCOC(=O)Nc1cccc(-n2c(=O)n(C3CC3)c(=O)c3c(Nc4ccc(Br)cc4F)cc(=O)n(C)c32)c1 [Example 1-308]	100 to 1000 nM	10 to 100 nM	–
Cn1c(=O)cc(Nc2ccc(Br)cc2F)c2c(=O)n(C3CC3)c(=O)n(-c3cccc(NS(=O)(=O)c4cccnc4)c3)c21 [Example 1-335]	100 to 1000 nM	10 to 100 nM	–
Cn1c(=O)cc(Nc2ccc(Br)cc2F)c2c(=O)n(C3CC3)c(=O)n(-c3cccc(NS(=O)(=O)CCN4CCOCC4)c3)c21 [Example 1-339]	100 to 1000 nM	–	–
Cn1c(=O)cc(Nc2ccc3sccc3c2F)c2c(=O)n(C3CC3)c(=O)n(-c3ccccc3)c21 [Example 1-343]	100 to 1000 nM	10 to 100 nM	–

Further lines, with some results ahead:

IC50 [1]	IC50 [2]	SMILES	fold induction at 0.1 µM (p15 protein)
100 to 1000 nM	100 to 1000 nM	Cc1c(=O)n(C)c(Nc2ccc(Br)cc2)c2c(=O)n(C3CC3)c(=O)n(-c3ccccc3)c12 [Example 3-1]	–
100 to 1000 nM	10 to 100 nM	Cc1c(=O)n(C)c(Nc2ccc(Br)cc2F)c2c(=O)n(C3CC3)c(=O)n(-c3ccc([N+](=O)[O-])cc3)c12 [Example 4-5]	–
10 to 100 nM	< 10 nM	CCn1c(=O)c2c(Nc3ccc(I)cc3F)n(C)c(=O)c(C)c2n(-c2cccc(NS(=O)(=O)CC)c2)c1=O [Example 4-19]	–
10 to 100 nM	< 10 nM	CCn1c(=O)c2c(Nc3ccc(I)cc3F)n(C)c(=O)c(C)c2n(-c2cccc(NS(C)(=O)=O)c2)c1=O [Example 4-20]	–
10 to 100 nM	< 10 nM	CCc1ccc(Nc2c3c(=O)n(C4CC4)c(=O)n(-c4cccc(NS(C)(=O)=O)c4)c3c(C)c(=O)n2C)c(F)c1 [Example 4-25]	–
10 to 100 nM	< 10 nM	CCc1ccc(Nc2c3c(=O)n(C4CC4)c(=O)n(-c4cccc(NS(=O)(=O)CC)c4)c3c(C)c(=O)n2C)c(F)c1 [Example 4-26]	–
< 10 nM	< 10 nM	Cc1c(=O)n(C)c(Nc2ccc(I)cc2F)c2c(=O)n(C3CC3)c(=O)n(-c3cccc(NS(=O)(=O)N(C)C)c3)c12 [Example 4-33]	–
< 10 nM	< 10 nM	Cc1c(=O)n(C)c(Nc2ccc(I)cc2F)c2c(=O)n(C3CC3)c(=O)n(-c3cccc(NS(=O)(=O)N4CCOCC4)c3)c12 [Example 4-34]	–
100 to 1000 nM	10 to 100 nM	CC(=O)Nc1cc(Cl)cc(-n2c(=O)n(C3CC3)c(=O)c3c(Nc4ccc(I)cc4F)n(C)c(=O)c(C)c32)c1 [Example 4-37]	–
100 to 1000 nM	–	CCc1ccc(Nc2c3c(=O)n(C4CC4)c(=O)n(-c4cccc(NS(C)(=O)=O)c4)c3c(C)c(=O)n2CC)c(F)c1 [Example 4-39]	–
10 to 100 nM	< 10 nM	C#Cc1ccc(Nc2c3c(=O)n(CC)c(=O)n(-c4cccc(NS(=O)(=O)CC)c4)c3c(C)c(=O)n2C)c(F)c1 [Example 4-40]	–
10 to 100 nM	10 to 100 nM	CCc1ccc(Nc2c3c(=O)n(CC)c(=O)n(-c4cccc(NS(=O)(=O)CC)c4)c3c(C)c(=O)n2C)c(F)c1 [Example 4-41]	–
10 to 100 nM	< 10 nM	C#Cc1ccc(Nc2c3c(=O)n(CC)c(=O)n(-c4cccc(NS(C)(=O)=O)c4)c3c(C)c(=O)n2C)c(F)c1 [Example 4-42]	–
100 to 1000 nM	10 to 100 nM	CCc1ccc(Nc2c3c(=O)n(CC)c(=O)n(-c4cccc(NS(C)(=O)=O)c4)c3c(C)c(=O)n2C)c(F)c1 [Example 4-44]	–
100 to 1000 nM	10 to 100 nM	C#Cc1ccc(Nc2c3c(=O)n(C4CC4)c(=O)n(-c4cccc(NC(C)=O)c4)c3c(C)c(=O)n2CC)c(F)c1 [Example 4-46]	–
100 to 1000 nM	–	CCc1ccc(Nc2c3c(=O)n(C4CC4)c(=O)n(-c4cccc(NC(C)=O)c4)c3c(C)c(=O)n2CC)c(F)c1 [Example 4-47]	–
100 to 1000 nM	100 to 1000 nM	CC#Cc1ccc(Nc2c3c(=O)n(C4CC4)c(=O)n(-c4cccc(NC(C)=O)c4)c3c(C)c(=O)n2C)c(F)c1 [Example 4-52]	–
100 to 1000 nM	10 to 100 nM	Cc1c(=O)n(C)c(Nc2ccc(I)cc2F)c2c(=O)n(C3CC3)c(=O)n(-c3cccc(NC(=O)c4cccn4C)c3)c12 [Example 4-87]	–
100 to 1000 nM	10 to 100 nM	Cc1c(=O)n(C)c(Nc2ccc(I)cc2F)c2c(=O)n(C3CC3)c(=O)n(-c3ccc(CC(=O)O)cc3)c12 [Example 4-94]	–
100 to 1000 nM	10 to 100 nM	Cc1c(=O)n(C)c(Nc2ccc(I)cc2F)c2c(=O)n(C3CC3)c(=O)n(-c3cccc(NC(=O)NCCO)c3)c12 [Example 4-95]	–
100 to 1000 nM	10 to 100 nM	Cc1c(=O)n(C)c(Nc2ccc(I)cc2F)c2c(=O)n(C3CC3)c(=O)n(-c3cccc(NS(=O)(=O)N(CCO)C(=O)NCCO)c3)c12 [Example 4-96]	–
